Laboratory results from patent publication US11723894B2, “Combination product for the treatment of neurological and/or psychiatric disorders” (Consejo Superior de Investigaciones Cientificas (CSIC), priority 2017, dated 2023).

Legend:
[1] = test system: hippocampal subgranular neurogenic niche; assay: Short-term (4 days) in vivo activation of the hippocampal subgranular neurogenic niche (BrdU); parameters: species or system C57BL/6 mice; conditions: DMT 0.1 μg/animal, lateral ventricle, sacrificed day 5
Protocol: Adult male C57BL/6 mice (obtained from Charles River Labs) were injected in the lateral ventricle (coordinates: from bregma, posterior −1 mm, lateral +1.3 mm, ventral +2 mm, according to the atlas of Paxinos and Franklin (Paxinos G, Franklin KBJ. The Mouse Brain in Stereotaxic Coordinates. 4. San Diego: Academic Press; 2012)), using a stereotaxic apparatus (Kopf Instruments, CA) with DMT (0.1 μg/animal), alone or in combination with the selective Sigma-1 BD1063 (BD, 0.2 μg/animal, Sigma, catalog number SML0276), the mixed 5-HT2A/1A receptor antagonist methiothepin (Met, 0.2 μg/animal, Sigma catalog number M149), or the selective 5-HT1A receptor antagonist WAY100635 (WAY, 0.2 μg/animal, ABCAM catalog number ab120550). Prior to the injection, mice were anesthetized by intraperitoneal injection of ketamine (60 mg/kg) and medetomidine (0.125 mg/kg). […] The boundaries of these nervous system regions were determined with reference to internal anatomic landmarks (Paxinos G, Franklin KBJ. The Mouse Brain in Stereotaxic Coordinates. 4. San Diego: Academic Press; 2012). For DG area selection, images were analyzed using computer-assisted image analysis software (Soft Imaging System Corporation, Lakewood, Colo., http://www.soft-imaging.com). Positive cells, which intersected the uppermost focal plane (exclusion plane) and the lateral exclusion boundaries of the counting frames, were not counted. […]

astrocytes = assay: LPS-induced nitrite production (Griess) in primary astrocyte cultures; assay type: cell-based, rat
Protocol: Example 8: DMT, DET, DPT and 5-MeO-DMT administration in vitro prevents inflammation in rat primary glial cells. […] Rat primary glial cell cultures were prepared from the cerebral cortex of 3 day old rats which were dissected, dissociated, and incubated with 0.25% trypsin/EDTA at 37° C. for 1 h. After centrifugation, the pellet was washed three times with HBSS (Gibco) and the cells were plated in poly-D-lysine (20 μg/mL) pretreated flasks (75 cm2). After 7-10 days, the flasks were agitated in an orbital shaker for 4 h at 230 rpm at 37° C. and non-adherent microglial cells were isolated and plated. Then Dulbecco's Modified Eagle's Medium (DMEM) was added to the flasks, which were agitated in a horizontal shaker at 260 rpm at 37° C. After overnight agitation, the supernatant (oligodendrocytes and some remaining microglial cells) was removed, and astrocytes (adherent cells) were collected. The purity of the cultures was >95%, as determined by immunofluorescence analysis using an anti-glial fibrillary acidic protein (GFAP; clone G-A-5; Sigma-Aldrich) antibody to identify astrocytes, and an anti-Iba1 (Wako Catalog No. 019-19741) antibody to identify microglial cells. On attaining semiconfluence, cells were administered each of the test tryptamines at 1 μM or with the combination test tryptamine+Ritanserin (Rit at 1 μM) 2 h before exposure to lipopolysaccharide (LPS, 10 μg/mL; Sigma-Aldrich) and kept in the presence of each drug or drug combination for 24 h. In combination studies, Rit was added to medium 1h before administration of the corresponding tryptamine. Vehicle-treated cultures were used as a control. After the 24 h drug exposure period, cultures were tested to assess nitrite release. To quantify nitrite concentrations in culture medium, supernatants of glial cultures were collected and mixed with an equal volume of Griess reagent (Sigma-Aldrich). Samples were then incubated at room temperature for 15 min and absorbance was measured at 540 nm on a microplate reader. Results are expressed as the mean±SEM of six replications in three different experiments

With `CN(C)CCc1c[nH]c2ccccc12` [DMT, N,N-dimethyltryptamine] the “BrdU staining (proliferation) in the hippocampus” value [1] was “increases”, the “reduction of LPS-induced nitrite in the presence of Rit” value (astrocytes; Rit 1 μM 1 h before tryptamine 1 μM, then LPS 10 μg/mL 24 h) was “maintained” and the LPS-induced nitrite increases (astrocytes; tryptamine 1 μM before LPS 10 μg/mL, 24 h, vs LPS alone) was “significantly reduced”.
